Assay results: patent publication US12458643B2, “Antidepressant/anxiolytic drug in which PAC1 receptor antagonist is used” (KAGOSHIMA UNIVERSITY, priority 2020, dated 2025)

How the values were obtained:
[1] = system: normal mice; test: Radial maze test in normal mice; format: in vivo, mouse; details: i.p. PA-915 30 mg/kg, ketamine 20 mg/kg, 30 minutes later, Day 10
Description: (3) The effects of PA-915 and ketamine on normal mice were evaluated by a radial maze test (test to evaluate spatial working memory by exploiting the foraging behavior of mice, and using an apparatus having 40 cm long, 10 cm wide and 12 cm high arms radially arranged in 8 directions).
On Day 0, male C57BL/6J mice (8 weeks old) were acclimatized to the apparatus by free exploration for 10 minutes in the apparatus in a laboratory (illuminance: 200 lx). On Days 1 and 2, the mice were allowed to explore only correct arms baited with a reward (food pellets, 5 mg) for 10 minutes. On Days 3 to 9, the mice were allowed to explore all the arms for 5 minutes at maximum until the mice finished the reward while the ends of the correct arms were baited with the reward. On Day 10, a vehicle (V: 10% DMSO solution; dissolved in saline; n=10), PA-915 (PA: 30 mg/kg; n=10) or ketamine (K: 20 mg/kg; n=10) was intraperitoneally administered thereto (0.1 mL/10 g). The mice were allowed to freely explore the maze from 30 minutes later, and the number of entries to the arms without the reward (the number of errors) was measured. During the test period, the absence of marked change in the body weights of the mice by dietary restriction was confirmed. The data was indicated by mean±standard error. **P<0.01 (One-way ANOVA followed by Tukey-Kramer test).

[2] = system: chronically corticosterone-administered model mice; test: Repeated corticosterone administration, forced swim test; format: in vivo, mouse; details: male mice, corticosterone 20 mg/kg s.c. 21 days; single i.p. PA-915 30 mg/kg, ketamine 20 mg/kg, fluoxetine 20 mg/kg; 24 hours later
Description: Chronically corticosterone-administered model mice are model mice that mimic high plasma corticosterone levels associated with the hyperactivation of the hypothalamic-pituitary-adrenal system under pathological stress, and are generally used as depression model mice.
A vehicle (0.5% carboxymethylcellulose solution) or corticosterone (20 mg/kg) was subcutaneously administered (0.1 mL/10 g) to male C57BL/6J mice (6 weeks old) for 21 days. A vehicle (10% DMSO solution; dissolved in saline; n=11), PA-915 (30 mg/kg; n=13), ketamine (20 mg/kg; n=13) or fluoxetine (20 mg/kg; n=15) was intraperitoneally administered thereto (0.1 mL/10 g) 3 hours after administration on the 21st day. The mice were forced to swim for 6 minutes 24 hours later, and an immobility time was measured. Mice given the vehicle by repeated administration without repeated corticosterone administration were used as a control (n=11). The data was indicated by mean±standard error. **P<0.01 (One-way ANOVA followed by Tukey-Kramer test).
A vehicle (0.5% carboxymethylcellulose solution) or corticosterone (20 mg/kg) was subcutaneously administered (0.1 mL/10 g) to female C57BL/6J mice (9 weeks old) for 21 days. […] The mice were forced to swim for 6 minutes 24 hours later, and an immobility time was measured. […]

[3] = target: T1, PAC1 receptor (Homo sapiens, UniProt P41586); details: disclosed in Patent Literature 2 (WO 2019/065794); cited from earlier work
T1 sequence (P41586 21-468): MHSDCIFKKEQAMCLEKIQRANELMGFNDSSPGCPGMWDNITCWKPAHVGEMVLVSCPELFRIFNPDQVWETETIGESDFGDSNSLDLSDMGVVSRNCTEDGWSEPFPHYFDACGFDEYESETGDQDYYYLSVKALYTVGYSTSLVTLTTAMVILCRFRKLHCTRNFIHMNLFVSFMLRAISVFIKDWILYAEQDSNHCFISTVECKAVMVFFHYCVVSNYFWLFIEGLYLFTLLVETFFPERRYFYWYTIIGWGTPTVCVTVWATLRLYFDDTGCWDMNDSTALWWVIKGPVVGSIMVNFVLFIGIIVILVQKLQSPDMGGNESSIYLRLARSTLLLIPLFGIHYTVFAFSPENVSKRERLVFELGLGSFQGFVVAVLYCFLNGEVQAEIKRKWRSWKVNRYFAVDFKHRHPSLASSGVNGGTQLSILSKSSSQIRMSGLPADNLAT

[4] = system: single-restraint stress mice; test: Single-restraint stress-induced anxiety-like behavior, open field test; format: in vivo, mouse; details: 30 mg/kg i.p. 30 min before 30 min restraint; 10 min test
Description: Male C57BL/6J mice (8 to 12 weeks old) were acclimatized to a laboratory (illuminance: 40 lx) for 60 minutes. Then, a vehicle (10% DMSO solution; dissolved in saline; n=11), PA-8 (30 mg/kg; n=11) or PA-81004 (30 mg/kg; n=8) was intraperitoneally administered thereto (0.1 mL/10 g). After a lapse of 30 minutes after administration, restraint stress (stress caused by holding the mice in tubes of 2.8 cm in diameter with a hole for breathing) was applied thereto for 30 minutes. The mice were allowed to freely explore an open field cage for 10 minutes from immediately after the completion of restraint. Mice that freely behaved in a home cage for 30 minutes without being held and without accessing water and food were used as a control (n=10). The results are shown in FIG. 9 (A: total distance traveled, B: the number of center zone entries, C: time spent in the center zone). The data was indicated by mean±standard error. **P<0.01, *P<0.05 (One-way ANOVA followed by Tukey-Kramer test). […] Male C57BL/6J mice (8 to 12 weeks old) were acclimatized to a laboratory (illuminance: 40 lx) for 60 minutes. Then, a vehicle (10% DMSO solution; dissolved in saline; n=10), PA-9 (30 mg/kg; n=13) or PA-915 (30 mg/kg; n=12) was intraperitoneally administered thereto (0.1 mL/10 g). After a lapse of 30 minutes after administration, restraint stress (stress caused by holding the mice in tubes of 2.8 cm in diameter with a hole for breathing) was applied thereto for 30 minutes. The mice were allowed to freely explore an open field cage for 10 minutes from immediately after the completion of restraint. Mice that freely behaved in a home cage for 30 minutes without being held and without accessing water and food were used as a control (n=10). The results are shown in FIG. 11 (A: total distance traveled, B: the number of center zone entries, C: time spent in the center zone). The data was indicated by mean±standard error. **P<0.01, *P<0.05 (One-way ANOVA followed by Tukey-Kramer test).

[5] = disclosed in Patent Literature 2 (WO 2019/065794); cited from earlier work

| SMILES | influence on spatial working memory (number of errors, radial maze) [1] | effect on depressive-like behavior (forced swim test, immobility time) [2] | PAC1 receptor antagonistic action [3] | effect on single-restraint stress-induced anxiety-like behavior (open field test) [4] | analgesic action [5] |
| --- | --- | --- | --- | --- | --- |
| CNC1(c2ccccc2Cl)CCCCC1=O (stereo not shown) [ketamine] | decreased spatial cognitive function | improved depressive-like behavior |  |  |  |
| CNCCC(Oc1ccc(C(F)(F)F)cc1)c1ccccc1 (stereo not shown) [fluoxetine] |  | exhibited no improving effect |  |  |  |
| C=CCOc1ccc(C2CC(=O)Nc3nc(N)[nH]c(=O)c32)cc1OC (stereo not shown) [PA-8] |  |  | PAC1 receptor antagonistic action | improving effects | analgesic action |
| O=C(NCCc1c[nH]cn1)C1CC(=O)N(c2n[nH]c3ccccc23)C1 (stereo not shown) [PA-9] |  |  | PAC1 receptor antagonistic action | improving effects | analgesic action |
| Nc1nc2c(c(=O)[nH]1)C(c1cccc(OC(F)(F)F)c1)CC(=O)N2 (stereo not shown) [PA-81004, 2-Amino-5-(3-trifluoromethoxyphenyl)-5,8-dihydro-3H,6H-pyrido[2,3-d]pyrimidine-4,7-dione] |  |  |  | improving effects |  |
